In ChEMBL document CHEMBL4130575, “Sucupiranins A-L, Furanocassane Diterpenoids from the Seeds of Bowdichia virgilioides” (J Nat Prod, 2017):

Experiments:
Plasmodium falciparum = experiment: Antimalarial activity against Plasmodium falciparum K1 infected in human erythrocytes after 72 hrs by lactate dehydrogenase assay; format: functional, organism-based; details: K1, 72 h
[1] = Cytotoxicity against human MRC5 cells assessed as decrease in cell viability after 7 days by MTT assay; format: cell-based
[2] = Selectivity index, ratio of CC50 for human MRC5 cells to IC50 for Plasmodium falciparum K1; format: toxicity; details: read-out: Ratio CC50/IC50
RAW264.7 = experiment: Antiinflammatory activity in mouse RAW264.7 cells assessed as inhibition of LPS-induced nitric oxide production preincubated for 3 hrs followed by LPS challenge measured after 20 hrs by Griess assay; format: functional, cell-based
HeLa = experiment: Cytotoxicity against human HeLa cells after 48 hrs by CCK8 assay; format: functional, cell-based
HL-60 = experiment: Cytotoxicity against human HL60 cells after 48 hrs by CCK8 assay; format: functional, cell-based; details: HL-60, 48 h

| SMILES | IC50 (Plasmodium falciparum) [µM] | other results |
| --- | --- | --- |
| CC(=O)OC[C@@]1(C)CCC[C@]2(C)[C@H]3Cc4occc4[C@@](C)(O)[C@@H]3[C@@H](O)[C@H](OC(C)=O)[C@@H]12 | > 28.8 | – |
| CC(=O)O[C@H]1[C@H](O)[C@@H]2[C@H](Cc3occc3[C@@]2(C)O)[C@@]2(C)CCCC(C)(C)[C@H]12 | 32.2 | CC50 at 168 h [1]: 139 µM; selectivity ratio [2]: 4.3; IC50 (RAW264.7): 30.6 µM |
| COC(=O)[C@@H]1c2ccoc2C[C@H]2[C@H]1[C@@H](OC(C)=O)[C@H](O)[C@H]1[C@](C)(COC(C)=O)CCC[C@]21C | > 27 | – |
| COC(=O)[C@@H]1c2ccoc2C[C@H]2[C@H]1[C@@H](OC(C)=O)[C@@H]1OC(=O)[C@]3(C)CCC[C@@]2(C)[C@@H]13 | > 30 | – |
| COC(=O)[C@@H]1c2ccoc2C[C@H]2[C@H]1[C@@H](O)[C@H](O)[C@H]1C(C)(C)CCC[C@]21C | 22.9 | CC50 at 168 h [1]: > 276 µM; selectivity ratio [2]: > 12 |
| COC(=O)[C@@H]1c2ccoc2C[C@H]2[C@H]1[C@@H](OC(C)=O)[C@H](O)[C@H]1C(C)(C)CCC[C@]21C | > 30.9 | – |
| CC(=O)OC[C@@H]1c2ccoc2C[C@H]2[C@H]1C[C@H](OC(C)=O)[C@H]1C(C)(C)CCC[C@]21C | 23.5 | CC50 at 168 h [1]: 44.1 µM; IC50 (HeLa): 32.2 µM; selectivity ratio [2]: 1.9; IC50 (HL-60): 32.6 µM |
| COC(=O)[C@@H]1c2ccoc2C[C@H]2[C@H]1[C@@H](O)[C@H](O)[C@H]1[C@](C)(CO)CCC[C@]21C | – | IC50 (HL-60): 9.8 µM |
| COC(=O)[C@@H]1c2ccoc2C[C@H]2[C@H]1[C@@H](OC(C)=O)[C@H](O)[C@@H]1[C@]2(C)CCC[C@@]1(C)C(=O)OC | > 27.9 | – |
| COC(=O)[C@@H]1c2ccoc2C[C@H]2[C@H]1[C@@H](O)[C@H](OC(C)=O)[C@H]1C(C)(C)CCC[C@]21C | > 30.9 | – |
| C[C@@H]1CC[C@H]2[C@@H](C)C(=O)O[C@@H]3O[C@@]4(C)CC[C@@H]1[C@]32OO4 [ARTEMISININ] | 0.025 | – |
